According to patent US20100111965A1, “COMBINATION THERAPY” (FUSION ANTIBODIES LIMITED, priority 2006, published 2010):

How the values were obtained:
[1] = tested on: RKO +/+; assay: Western blot of AREG protein in RKO lysates after chemotherapy; format: cell-based, human; conditions: RKO p53 wild type lysates; 48 hour treatment
Description: (§1) FIG. 2 illustrates western blot analysis of AREG and gamma tubulin protein expression in HCT116 +/+ and RKO +/+ with/without a 48 hour CPT11 or 5-Fu treatment; HCT 116, RKO, HT 29 and H630 are human colorectal carcinoma cell lines. After different time exposure to chemotherapy the cells were harvested, and washed in 1×PBS. The cell pellet was then lysed in a suitable amount of 1×RIPA lysis buffer (150 mM NaCl, 10 mM Tris at pH 7.2, 0.1% SDS, 1.0% triton X-100 and 5 mM.EDTA) supplemented with protease inhibitors. The cell lysate was briefly vortexed, incubated on ice for 10 min and then centrifuged at 12,000 rpm to remove cell debris. Following centrifugation, the lysate supernatant was removed to a fresh eppendorf tube. Protein concentrations were assayed using the BCA Protein Assay (Pierce) according to the manufacturer's instructions. The absorbance of each sample at 620 nm was assayed using a microplate reader. A standard BSA curve was plotted for each experiment and the protein concentration of each sample calculated. To each sample an equal volume of 5× Western sample buffer and 10% of the final volume of β-mercaptoethanol (Sigma) was added. The samples were denatured at 95° C. for 5 minutes and placed on ice prior to loading onto SDS polyacrylamide gel (SDS PAGE). […] Protein bands were detected by exposure to autoradiograph which was subsequently developed. […]

[2] = tested on: HCT116 +/+; assay: Western blot of AREG protein in HCT116 lysates after chemotherapy; format: cell-based, human; conditions: HCT116 p53 wild type lysates; 48 hour treatment
Description: as §1

Q: With `CCc1c2c(nc3ccc(OC(=O)N4CCC(N5CCCCC5)CC4)cc13)-c1cc3c(c(=O)n1C2)COC(=O)[C@]3(O)CC` [CPT-11, irinotecan] as the compound, how does the “AREG protein expression (western blot)” value [1] read?
A: Enhanced AREG expression

Q: What about the “AREG protein expression (western blot)” value [2] of the same compound?
A: Enhanced AREG expression
